Source: ChEMBL document CHEMBL1158384, “Design, synthesis, and biological evaluation of 1,5-benzothiazepine-4-one derivatives targeting factor VIIa/tissue factor” (Bioorg Med Chem Lett, 2009)

Assays:
[1] = target: Coagulation factor VII/tissue factor (Homo sapiens, UniProt P08709); assay: Inhibition of human tissue factor/factor 7a; assay type: protein-complex assay
[2] = target: Prothrombin (Homo sapiens, UniProt P00734); assay: Inhibition of human factor 2a by spectrophotometry
[3] = target: Coagulation factor X (Homo sapiens, UniProt P00742); assay: Inhibition of human factor 10a by spectrometry
Sequence of Coagulation factor X (P00742 41-179 limits assumed): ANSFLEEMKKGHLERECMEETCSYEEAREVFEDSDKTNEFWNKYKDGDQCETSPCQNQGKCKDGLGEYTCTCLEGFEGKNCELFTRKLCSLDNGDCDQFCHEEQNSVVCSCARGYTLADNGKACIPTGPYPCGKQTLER
Sequence of Coagulation factor X (P00742 235-488 limits assumed): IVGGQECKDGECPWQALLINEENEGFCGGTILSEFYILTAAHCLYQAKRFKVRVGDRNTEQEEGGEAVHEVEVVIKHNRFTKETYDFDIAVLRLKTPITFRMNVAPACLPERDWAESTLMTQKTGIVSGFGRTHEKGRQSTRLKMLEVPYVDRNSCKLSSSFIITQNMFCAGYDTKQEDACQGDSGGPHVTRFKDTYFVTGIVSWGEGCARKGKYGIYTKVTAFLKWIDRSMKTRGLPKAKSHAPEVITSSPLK

Sequence of Coagulation factor VII/tissue factor (P08709 61-212 limits assumed): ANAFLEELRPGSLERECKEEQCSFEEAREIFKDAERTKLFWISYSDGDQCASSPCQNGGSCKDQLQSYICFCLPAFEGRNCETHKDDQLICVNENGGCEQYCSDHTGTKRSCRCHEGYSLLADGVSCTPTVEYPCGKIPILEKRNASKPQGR
Sequence of Coagulation factor VII/tissue factor (P08709 213-466 limits assumed): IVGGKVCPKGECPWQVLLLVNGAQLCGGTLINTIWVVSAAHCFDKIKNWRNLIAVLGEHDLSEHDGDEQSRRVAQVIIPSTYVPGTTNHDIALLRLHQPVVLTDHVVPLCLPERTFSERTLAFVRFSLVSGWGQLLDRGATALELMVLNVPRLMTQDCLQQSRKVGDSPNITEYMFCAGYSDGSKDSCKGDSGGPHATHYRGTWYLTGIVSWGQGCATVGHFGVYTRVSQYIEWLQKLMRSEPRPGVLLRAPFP
Sequence of Coagulation factor VII/tissue factor (P13726 33-295 partner limits assumed): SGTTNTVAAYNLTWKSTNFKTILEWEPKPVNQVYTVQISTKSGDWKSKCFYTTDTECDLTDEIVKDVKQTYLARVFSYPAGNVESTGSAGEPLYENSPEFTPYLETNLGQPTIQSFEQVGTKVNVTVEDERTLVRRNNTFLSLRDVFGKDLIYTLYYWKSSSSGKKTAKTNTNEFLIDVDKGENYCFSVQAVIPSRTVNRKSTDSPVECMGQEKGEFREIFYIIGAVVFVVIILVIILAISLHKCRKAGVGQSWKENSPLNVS

IC50 [1] [µM]	IC50 [2] [µM]	IC50 [3] [µM]	SMILES
168			CC(=O)N[C@H]1CSc2ccccc2N(CCC(=O)NCc2ccc(C(=N)N)cc2)C1=O
13.1			N=C(N)c1ccc(CNC(=O)CN2C(=O)[C@H](NS(=O)(=O)Cc3ccccc3)CSc3cc(CCC(=O)O)ccc32)cc1
166	> 33		N=C(N)c1ccc(CNC(=O)CCN2C(=O)[C@@H](NC(=O)CCC(=O)O)CSc3ccccc32)cc1
2.3	1.89	1.52	N=C(N)c1ccc(CNC(=O)CN2C(=O)[C@H](NS(=O)(=O)Cc3ccccc3)CSc3ccc(N)cc32)cc1
> 33			Cc1nc(N)ccc1CNC(=O)CCN1C(=O)[C@H](NS(=O)(=O)Cc2ccccc2)CSc2ccccc21
5.6	10	0.8	N=C(N)c1ccc(CNC(=O)CN2C(=O)[C@H](NS(=O)(=O)Cc3ccccc3)CSc3cc(CN)ccc32)cc1
95			N=C(N)c1ccc(CNC(=O)CCN2C(=O)[C@H](NCC(=O)O)CSc3ccccc32)cc1
10.9			N=C(N)c1ccc(CNC(=O)CN2C(=O)[C@H](NS(=O)(=O)Cc3ccccc3)CSc3ccc(-c4ccccc4)cc32)cc1
233			CC(=O)N[C@@H]1CSc2ccccc2N(CCC(=O)NCc2ccc(C(=N)N)cc2)C1=O
2.98	33	0.21	N=C(N)c1ccc(CNC(=O)CN2C(=O)[C@H](NS(=O)(=O)Cc3ccccc3)CSc3ccc(CC(=O)O)cc32)cc1
24.4	87		N=C(N)c1ccc(CNC(=O)CN2C(=O)[C@@H](N)CSc3ccccc32)cc1
15.9			N=C(N)c1ccc(CNC(=O)CN2C(=O)[C@H](NCC(=O)O)CSc3ccccc32)cc1
5.96	0.79	2.81	N=C(N)c1ccc(CNC(=O)CN2C(=O)[C@H](NS(=O)(=O)Cc3ccccc3)CSc3ccc(-c4cccc([N+](=O)[O-])c4)cc32)cc1
> 300	130		CC(=O)N[C@H]1CSc2ccccc2N(CC(=O)NCc2ccc(N)nc2C)C1=O
> 33			N=C(N)c1ccc(CNC(=O)CN2C(=O)[C@H](NC(=O)C(c3ccccc3)c3ccccc3)CSc3ccccc32)cc1
27.7	> 300		N=C(N)c1ccc(CNC(=O)CN2C(=O)[C@@H](NC(=O)CCC(=O)O)CSc3ccccc32)cc1
> 33			Cc1nc(N)ccc1CNC(=O)CN1C(=O)[C@H](NS(=O)(=O)Cc2ccccc2)CSc2ccccc21
> 33			Cc1nc(N)ccc1CNC(=O)CCN1C(=O)[C@H](NCC(=O)O)CSc2ccccc21
4.67			N=C(N)c1ccc(CNC(=O)CN2C(=O)[C@H](NS(=O)(=O)Cc3ccccc3)CSc3ccc(C(=O)O)cc32)cc1
1.86	10	1.72	N=C(N)c1ccc(CNC(=O)CN2C(=O)[C@H](NS(=O)(=O)Cc3ccccc3)CSc3ccc(CN)cc32)cc1

IC50 [1] [µM]	IC50 [2] [µM]	IC50 [3] [µM]	SMILES
90			CC(=O)N[C@@H]1CSc2ccccc2N(CC(=O)NCc2ccc(C(=N)N)cc2)C1=O
> 330	33		N=C(N)c1ccc(CNC(=O)CCN2C(=O)[C@@H](NCC(=O)O)CSc3ccccc32)cc1
> 300	88		Cc1nc(N)ccc1CNC(=O)CN1C(=O)[C@@H](N)CSc2ccccc21
6.86	10	3.23	N=C(N)c1ccc(CNC(=O)CN2C(=O)[C@H](NS(=O)(=O)Cc3ccccc3)CSc3ccc(-c4cccc(N)c4)cc32)cc1
4.86	7.05	1.63	N=C(N)c1ccc(CNC(=O)CN2C(=O)[C@H](NS(=O)(=O)Cc3ccccc3)CSc3cc(N)ccc32)cc1
63			N=C(N)c1ccc(CNC(=O)CCN2C(=O)[C@H](NS(=O)(=O)Cc3ccccc3)CSc3ccccc32)cc1
81	300		N=C(N)c1ccc(CNC(=O)CN2C(=O)C(NC(=O)CCC(=O)O)CSc3ccccc32)cc1 (single isomer, unassigned)
> 300	88		Cc1nc(N)ccc1CNC(=O)CN1C(=O)[C@H](N)CSc2ccccc21
1.32	6.23	2.79	N=C(N)c1ccc(CNC(=O)CN2C(=O)[C@H](NS(=O)(=O)Cc3ccccc3)CSc3ccc(CCN)cc32)cc1
1.5	33	1.05	N=C(N)c1ccc(CNC(=O)CN2C(=O)[C@H](NS(=O)(=O)Cc3ccccc3)CSc3ccc(CC(N)C(=O)O)cc32)cc1 (stereo partly drawn)
37.3	100		CC(=O)N[C@H]1CSc2ccccc2N(CC(=O)NCc2ccc(C(=N)N)cc2)C1=O
> 300	133		CC(=O)N[C@@H]1CSc2ccccc2N(CC(=O)NCc2ccc(N)nc2C)C1=O
> 33			Cc1nc(N)ccc1CNC(=O)CN1C(=O)[C@H](NCC(=O)O)CSc2ccccc21
2.16	0.37	3.28	N=C(N)c1ccc(CNC(=O)CN2C(=O)C(NS(=O)(=O)Cc3ccccc3)CSc3ccccc32)cc1 (single isomer, unassigned)
14.3			N=C(N)c1ccc(CNC(=O)CN2C(=O)[C@H](NS(=O)(=O)Cc3ccccc3)CSc3cc(CC(=O)O)ccc32)cc1
19.7			N=C(N)c1ccc(CNC(=O)CCN2C(=O)[C@@H](NS(=O)(=O)Cc3ccccc3)CSc3ccccc32)cc1
61			N=C(N)c1ccc(CNC(=O)CCN2C(=O)[C@H](NC(=O)CCC(=O)O)CSc3ccccc32)cc1
> 33			N=C(N)c1ccc(CNC(=O)CN2C(=O)[C@H](NS(=O)(=O)Cc3ccccc3)CSc3cc(C(=O)O)ccc32)cc1
27.9	48		N=C(N)c1ccc(CNC(=O)CN2C(=O)[C@@H](NS(=O)(=O)Cc3ccccc3)CSc3ccccc32)cc1
2.64	33	2.03	N=C(N)c1ccc(CNC(=O)CN2C(=O)[C@H](NS(=O)(=O)Cc3ccccc3)CSc3ccc(CCC(=O)O)cc32)cc1
